According to US7563793B2, “Pyrrolo[1,2-a]quinoxalin-5-(4H)-yl)sulfonyls and carbonyls and their use as estrogenic agents” (Wyeth, priority 2004, dated 2009):
Read-outs that look alike come from different tables or passages of the source.

Key:
Assay type in all cases: cell-based, human
ER/Nf-kB = assay: ER/NF-κB luciferase reporter assay in Ad5-wt-ER infected HAECT-1 cells (IL-1β induced); details: for ER/Nf-kB Efficacy: relative to maximal inhibition observed with E2
Experimental: (§1) After four hours, cells were washed with EBM-BSA and incubated overnight in the same medium. […] After two hours, cells were washed and incubated at 34° C. for 1 hour. […] Control (no ER infection) cells were processed as above without Ad5-wt-hERα virus infection. […] Cells were subsequently washed with 300 μl of Dulbecco's phosphate buffered saline and lysed in 50 μl of Cell Culture Lysis Reagent (Promega). Luciferase was determined on a Wallac Victor^2 Luminometer (Gaithersburg, Md.) using 10 μl of lysate and mixing with 100 lμof Promega Luciferase Assay reagent. […] For IC50 and EC50 calculations, mean IL-6, luciferase or CK values versus log10 of the compound concentration were fitted to a four parameter logistic equation. The IC50/EC50 value, ‘Hill slope’, upper and lower limits of the curve were iteratively estimated.

IL-6 = IL-6 assay (ELISA) in Ad5-wt-ER infected HAECT-1 cells (IL-1β induced); details: for Emax: HAECT1, relative to maximal inhibition observed with E2, read-out: IL-6 Efficacy; for IL-6 Efficacy: relative to maximal inhibition observed with E2
Experimental: as §1

creatine kinase = assay: Creatine kinase assay in Ad5-wt-ER infected HAECT-1 cells; details: for EC50 / Emax: Homo sapiens; for EC50: HAECT1, CK stimulation, N/O = activity not observed at concentrations tested, read-out: CK IC50; for Emax: HAECT1, relative to maximal stimulation observed with E2, read-out: CK Efficacy; for CK Efficacy: relative to maximal stimulation observed with E2
Experimental: as §1

Row | SMILES | IC50 (IL-6; Homo sapiens, HAECT1) | Emax (IL-6; Homo sapiens) | EC50 (creatine kinase) | Emax (creatine kinase) | further results
1 | CCOC(=O)Oc1ccc(S(=O)(=O)N2c3c(C)cccc3-n3cccc3C2CC)cc1 (centres unmarked) [Example 66, ethyl 4-[(4-ethyl-6-methylpyrrolo[1,2-a]quinoxalin-5-(4H)-yl)sulfonyl]phenyl carbonate] | – | – | – | – | IC50 (ER/Nf-kB): 320 nM; ER/Nf-kB Efficacy (ER/Nf-kB): 98%
2 | CCC1c2cccn2-c2ccc(Br)cc2N1C(=O)c1ccc(O)cc1O (centres unmarked) [Example 113, 4-[(7-bromo-4-ethylpyrrolo[1,2-a]quinoxalin-5(4H)-yl)carbonyl]benzene-1,3-diol] | 9.5 nM | 101% | 25 nM | 28% | –
3 | CC[C@@H]1c2cccn2-c2ccc(Br)cc2N1C(=O)c1ccc(O)cc1 [111 (R), 4-{[(4R)-7-bromo-4-ethylpyrrolo[1,2-a]quinoxalin-5(4H)-yl]carbonyl}phenol] | 46 nM | 87% | 117 nM | 40% | –
4 | CC(C)(C)[C@H]1c2cccn2-c2ccc(Br)cc2N1C(=O)c1cccc(O)c1 [115 (S), 3-{[(4S)-7-bromo-4-tert-butylpyrrolo[1,2-a]quinoxalin-5(4H)-yl]carbonyl}phenol] | 455 nM | 94% | – | – | –
5 | CCC1c2cccn2-c2ccccc2N1S(=O)(=O)c1ccc(O)c(C)c1 (centres unmarked) [Example 64, 4-[(4-ethylpyrrolo[1,2-a]quinoxalin-5-(4H)-yl)sulfonyl]-2-methylphenol] | – | – | – | – | IC50 (ER/Nf-kB): 202 nM; ER/Nf-kB Efficacy (ER/Nf-kB): 89%
6 | C[C@H]1c2cccn2-c2ccc(Br)cc2N1C(=O)c1cccc(O)c1 [107 (S), 3-{[(4S)-7-bromo-4-methylpyrrolo[1,2-a]quinoxalin-5(4H)-yl]carbonyl}phenol] | 1060 nM | 66% | – | – | –
7 | CC[C@@H]1c2cccn2-c2ccc(F)cc2N1C(=O)c1ccc(O)cc1O [121 (R), 4-{[(4R)-4-ethyl-7-fluoropyrrolo[1,2-a]quinoxalin-5(4H)-yl]carbonyl}benzene-1,3-diol] | 1.6 nM | 108% | 13 nM | 36% | –
8 | CC(C)(C)[C@@H]1c2cccn2-c2ccc(Br)cc2N1C(=O)c1cccc(O)c1 [115 (R), 3-{[(4R)-7-bromo-4-tert-butylpyrrolo[1,2-a]quinoxalin-5(4H)-yl]carbonyl}phenol] | 647 nM | 82% | – | – | –
9 | CC[C@@H]1c2ccc(C#N)n2-c2ccc(F)cc2N1C(=O)c1ccc(O)cc1 [Example 128, (4R)-4-ethyl-7-fluoro-5-(4-hydroxybenzoyl)-4,5-dihydropyrrolo[1,2-a]quinoxaline-1-carbonitrile] | 64 nM | 111% | – | – | –
10 | CCC1c2cccn2-c2ccc(F)cc2N1S(=O)(=O)c1ccc(O)c(Cl)c1 (centres unmarked) [Example 31, 2-chloro-4-[(4-ethyl-7-fluoropyrrolo[1,2-a]quinoxalin-5-(4H)-yl)sulfonyl]phenol] | – | – | – | – | IC50 (ER/Nf-kB): 364 nM; ER/Nf-kB Efficacy (ER/Nf-kB): 104%
11 | CC[C@H]1c2cccn2-c2ccc(Br)cc2N1C(=O)c1ccc(O)cc1 [111 (S), 4-{[(4S)-7-bromo-4-ethylpyrrolo[1,2-a]quinoxalin-5(4H)-yl]carbonyl}phenol] | 1090 nM | 65% | – | – | –
12 | CC[C@H]1c2cccn2-c2ccc(F)cc2N1C(=O)c1ccc(O)cc1 [119 (S), 4-{[(4S)-4-ethyl-7-fluoropyrrolo[1,2-a]quinoxalin-5(4H)-yl]carbonyl}phenol] | 101 nM | 79% | – | – | –
13 | CC(C)(C)C1c2cccn2-c2ccc(Br)cc2N1C(=O)c1ccc(O)cc1 (centres unmarked) [Example 116, 4-[(7-bromo-4-tert-butylpyrrolo[1,2-a]quinoxalin-5(4H)-yl)carbonyl]phenol] | 207 nM | 90% | – | – | –
14 | CC1c2cccn2-c2ccc(Br)cc2N1C(=O)c1cccc(O)c1 (centres unmarked) [Example 106, 3-[(7-bromo-4-methylpyrrolo[1,2-a]quinoxalin-5(4H)-yl)carbonyl]phenol] | 10 nM | 54% | – | – | –
15 | C[C@@H]1c2cccn2-c2ccc(F)cc2N1C(=O)c1cccc(O)c1 [131 (R), 3-{[(4R)-4-methyl-7-fluoropyrrolo[1,2-a]quinoxalin-5(4H)-yl]carbonyl}phenol] | 179 nM | 103% | – | – | –
16 | CC1c2cccn2-c2ccc(Br)cc2N1C(=O)c1ccc(O)cc1 (centres unmarked) [Example 108, 4-[(7-bromo-4-methylpyrrolo[1,2-a]quinoxalin-5(4H)-yl)carbonyl]phenol] | 53 nM | 118% | 18 nM | 7% | –
17 | CC1c2ccc(F)n2-c2cc(F)c(F)cc2N1S(=O)(=O)c1ccc(O)cc1 (centres unmarked) [Example 13, 4-[(1,7,8-trifluoro-4-methylpyrrolo[1,2-a]quinoxalin-5-(4H)-yl)sulfonyl]phenol] | – | – | – | – | IC50 (ER/Nf-kB): 20 nM; ER/Nf-kB Efficacy (ER/Nf-kB): 104%

Row | SMILES | IC50 (IL-6; Homo sapiens, HAECT1) | Emax (IL-6; Homo sapiens) | EC50 (creatine kinase) | Emax (creatine kinase) | further results
18 | C[C@H]1c2cccn2-c2ccc(F)cc2N1C(=O)c1ccc(O)cc1 [123 (S), 4-{[(4S)-7-fluoro-4-methylpyrrolo[1,2-a]quinoxalin-5(4H)-yl]carbonyl}phenol] | 606 nM | 47% | – | – | –
19 | CCC1c2ccc(F)n2-c2ccc(F)cc2N1S(=O)(=O)c1ccc(O)cc1 (centres unmarked) [Example 23, 4-[(4-ethyl-1,7-difluoropyrrolo[1,2-a]quinoxalin-5-(4H)-yl)sulfonyl]phenol] | – | – | – | – | IC50 (IL-6): 6.6 nM; IL-6 Efficacy (IL-6): 162%; CK Efficacy (creatine kinase): 52%
20 | CC[C@H]1c2cccn2-c2ccc(Cl)cc2N1C(=O)c1ccc(O)cc1O [125 (S), 4-{[(4S)-7-chloro-4-ethylpyrrolo[1,2-a]quinoxalin-5(4H)-yl]carbonyl}benzene-1,3-diol] | 1100 nM | 81% | 68 nM | 15% | –
21 | CC[C@H]1c2cccn2-c2ccc(F)cc2N1C(=O)c1cccc(O)c1 [127 (S), 3-{[(4S)-4-ethyl-7-fluoropyrrolo[1,2-a]quinoxalin-5(4H)-yl]carbonyl}phenol] | 1330 nM | 41% | 33 nM | 33% | –
22 | CC[C@H]1c2ccc(C#N)n2-c2ccc(F)cc2N1C(=O)c1ccc(O)cc1 [Example 129, (4S)-4-ethyl-7-fluoro-5-(4-hydroxybenzoyl)-4,5-dihydropyrrolo[1,2-a]quinoxaline-1-carbonitrile] | 29 nM | -77% | 636 nM | -7% | –
23 | Cc1cc(S(=O)(=O)N2c3cc(F)ccc3-n3cccc3C2C)ccc1O (centres unmarked) [Example 51, 4-[(7-fluoro-4-methylpyrrolo[1,2-a]quinoxalin-5-(4H)-yl)sulfonyl]-2-methylphenol] | – | – | – | – | IC50 (ER/Nf-kB): 155 nM; ER/Nf-kB Efficacy (ER/Nf-kB): 66%
24 | CC(C)(C)C1c2cccn2-c2ccc(Br)cc2N1C(=O)c1cccc(O)c1 (centres unmarked) [Example 114, 3-[(7-bromo-4-tert-butylpyrrolo[1,2-a]quinoxalin-5(4H)-yl)carbonyl]phenol] | 441 nM | 38% | – | – | –
25 | CC[C@H]1c2cccn2-c2ccc(F)cc2N1C(=O)c1ccc(O)cc1O [121 (S), 4-{[(4S)-4-ethyl-7-fluoropyrrolo[1,2-a]quinoxalin-5(4H)-yl]carbonyl}benzene-1,3-diol] | 72 nM | 95% | 64 nM | 32% | –
26 | CC1(C)c2cccn2-c2cc(F)c(F)cc2N1S(=O)(=O)c1ccc(O)cc1 [Example 15, 4-[(7,8-difluoro-4,4-dimethylpyrrolo[1,2-a]quinoxalin-5-(4H)-yl)sulfonyl]phenol] | – | – | – | – | IC50 (ER/Nf-kB): 150 nM; ER/Nf-kB Efficacy (ER/Nf-kB): 105%
27 | CCC1c2cccn2-c2ccc(Br)cc2N1C(=O)c1ccc(O)cc1 (centres unmarked) [Example 110, 4-[(7-bromo-4-ethylpyrrolo[1,2-a]quinoxalin-5(4H)-yl)carbonyl]phenol] | 369 nM | 78% | – | – | –
28 | CC[C@@H]1c2cccn2-c2ccc(F)cc2N1C(=O)c1ccc(O)cc1 [119 (R), 4-{[(4R)-4-ethyl-7-fluoropyrrolo[1,2-a]quinoxalin-5(4H)-yl]carbonyl}phenol] | 8 nM | 95% | 11 nM | 27% | –
29 | CC1c2cccn2-c2ccc(Br)cc2N1C(=O)c1ccc(O)cc1O (centres unmarked) [Example 109, 4-[(7-bromo-4-methylpyrrolo[1,2-a]quinoxalin-5(4H)-yl)carbonyl]benzene-1,3-diol] | 42 nM | 128% | 398 nM | 40% | –
30 | CC(C)(C)C1c2cccn2-c2ccc(Br)cc2N1C(=O)c1ccc(O)cc1O (centres unmarked) [Example 117, 4-[(7-bromo-4-tert-butylpyrrolo[1,2-a]quinoxalin-5(4H)-yl)carbonyl]benzene-1,3-diol] | 9 nM | 90% | 33 nM | 42% | –
31 | CCC1c2cccn2-c2ccc(Br)cc2N1C(=O)c1cccc(O)c1 (centres unmarked) [Example 112, 3-[(7-bromo-4-ethylpyrrolo[1,2-a]quinoxalin-5(4H)-yl)carbonyl]phenol] | 152 nM | 88% | 207 nM | 21% | –
32 | C[C@H]1c2cccn2-c2ccc(F)cc2N1C(=O)c1cccc(O)c1 [131 (S), 3-{[(4S)-4-methyl-7-fluoropyrrolo[1,2-a]quinoxalin-5(4H)-yl]carbonyl}phenol] | 1460 nM | 69% | – | – | –
33 | CCC1c2cccn2-c2cc(F)c(F)cc2N1S(=O)(=O)c1ccc(OS(N)(=O)=O)cc1 (centres unmarked) [Example 105, 4-{4-ethyl-7,8-difluoropyrrolo[1,2-a]quinoxalin-5(4H)-yl]sulfonyl}phenyl sulfamate] | – | – | – | – | IC50 (IL-6): 2 nM; IL-6 Efficacy (IL-6): 116%; CK Efficacy (creatine kinase): 49%
